Test results published in patent US20260234188A1, “CHEMOKINE-BINDING PEPTIDES” (Oxford University Innovation Limited, priority 2022, published 2026).
“Also recorded” adds a separate entry of the source.

test system: panel of up to 42 human chemokines; experiment: Phage-display next generation sequencing screen of overlapping hexadecapeptide libraries, chemokines displayed on streptavidin beads; type: binding; conditions: log2E greater than 5, chemokines named by first part of UniProt Entry Name;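 also: chemokine listed when log2 fold enrichment exceeds 5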
In short: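 Phage-display libraries of 55662 overlapping hexadecapeptides from tick and viral chemokine-binding proteins, human chemokines and chemokine receptors screened against up to 42 human chemokines, with hits found by next-generation sequencing. Peptides mapped to parent-protein position with log2 fold enrichment; regions of interest where cumulative residue log2 E exceeds the 95% upper CI of the protein median.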

Substance	Chemokines Bound
CR26521 (WGLALLFALPDFIFLS)	CCL15, CXL13, and IL8
CR3161 (DFSAILLYIDDFSAYF)	CCL17, CCL18,; also recorded: X3CL1, CXL10,; also recorded: SDF1, CXL13,; also recorded: CXL14
CR5021 (FFSGMLLLLSISIDRY)	CCL18, CCL19,; also recorded: CCL20, CCL28
CR24900 (VIGFLVPLLAMSFCYL)	CCL15, CCL17,; also recorded: CCL18
CR24063 (TWNLVLSQFFSILATM)	CCL1, CCL22,; also recorded: CXL11, CXL14
CR26667 (WNNFHTIMRNILGLVL)	CCL17, CCL18,; also recorded: CXL14
CR23379 (TNFDFMILNLSFADLF)	CCL17, CCL18,; also recorded: X3CL1
CR26762 (WVASILSSILDTIFHK)	CCL17, CCL18,; also recorded: X3CL1, CXL10,; also recorded: CXL11, IL8
CR25357 (VLTLKVILGFFLPFVV)	CCL1, CCL17,; also recorded: CCL18, CCL19,; also recorded: CCL28, CXL10,; also recorded: CXL11, SDF1,; also recorded: CXL13, CXL14
CR3800 (DYSIILMFLSDFSFIF)	CCL1, CCL11, and CCL15, CCL18, and CCL28, X3CL1, and CXL10, CXL11, and SDF1, CXL13, and IL8
CR5170 (FGVITSIVTWGLAVLA)	X3CL1, CXL10, and IL8
CR5349 (FIYVLMFLCNAIGNSL)	CCL19, CCL20,; also recorded: CXL10
CR27051 (YDLFIGIKIVYSFLWG)	CCL18, CCL2,; also recorded: CCL20, CCL25,; also recorded: CCL28, CXL10,; also recorded: CXL11, CXL14
CR5027 (FFSQLVYFIYHAVSSY)	CCL17, CCL18, and CCL20, CXL10, and CXL11, SDF1, and IL8
CR25001 (VITWLVAVFASVPGII)	CCL1, CCL19,; also recorded: CCL2, CXL11,; also recorded: CXL14
CR4465 (ESLFSALVTLITSLFG)	CCL18, CCL8,; also recorded: CXL10
CR27433 (YLLDFILALVGNTLAL)	CCL18, CCL19,; also recorded: CCL20, CCL25,; also recorded: CCL28, CXL10,; also recorded: CXL11
CR498 (AFLWGIFPTVIFSYFY)	CCL17, CCL18,; also recorded: CCL19, CCL20,; also recorded: CCL25, CXL13
CR26817 (WVLGDFLCKLLNMIFS)	CCL1, CCL17, and CCL18, CCL20, and CCL28, X3CL1, and CXL10, CXL11, and CXL13, CXL14, and IL8
CR27049 (YDLFIGIKIVYAFLWG)	CCL1, CCL18, and CCL22, CCL25, and IL8
CR26309 (VWLMSIVGTFLNMLVI)	CCL18, CXL10,; also recorded: CXL11, CXL13,; also recorded: CXL14
CR26308 (VWLMCIVGTFLNVLVI)	CCL18, CCL20, and CCL22, CCL28, and CXL10, CXL11, and SDF1
CR26306 (VWLMAIVGTFLNVLVI)	CCL22, CXL11,; also recorded: CXL13
CR23958 (TVLLSWKVLLTMVWGA)	CCL1, CCL18,; also recorded: CCL20, CCL25,; also recorded: CCL28, CXL10,; also recorded: CXL11, SDF1
CR23945 (TVITFSLYVGQFLAYV)	CCL1, CCL15,; also recorded: CCL20, CCL22,; also recorded: CCL28, CXL10,; also recorded: CXL11, SDF1,; also recorded: CXL13

same assay, conditions: log2E greater than 5, chemokines named by first part of UniProt Entry Name, peptides binding complement C5a (control) excluded

Substance	Chemokines Bound
EB936 (EKSDEYELFTVEYCGT)	CXL10, CXL11,; also recorded: SDF1, CXL13
CR7815 (GVVTSVITWVVAVFAS)	CCL1, CCL15,; also recorded: CCL2, CCL20,; also recorded: CCL22, CCL25,; also recorded: CCL28, CCL8,; also recorded: CXL10, CXL13
CR9218 (IITSVLAWVTAILATL)	CCL17, CCL18, and CXL11, CXL14, and IL8
CR9887 (ISLFAGVSFLINLSMD)	CCL17, CCL18,; also recorded: CCL25
CR6163 (FSRAIDIIYSLITSSN)	CCL17, CCL18,; also recorded: CCL2, CCL22,; also recorded: CCL28, X3CL1,; also recorded: CXL14
CR9284 (ILAFFASWLPYYIGIS)	CCL17, CCL18,; also recorded: CCL25
CR9587 (IMYSIIAFVGLLGNGL)	CCL17, CCL18,; also recorded: CCL20, CXL14
CR7344 (GMGPGPWMNILWAWFI)	CCL1, CCL11,; also recorded: CCL17, CCL18,; also recorded: CCL19, CCL2,; also recorded: CCL20, CCL22,; also recorded: CCL25, CCL8,; also recorded: X3CL1, CXL10,; also recorded: CXL11, SDF1,; also recorded: CXL14, IL8
CR6605 (FYVAMFASLSFITEIA)	CXL10, CXL11, and IL8
CR6041 (FSAILLYIDDFSAYFS)	CCL17, CCL18,; also recorded: X3CL1, IL8
CR9515: chemokine binding peptide of Table 5A used in FIG. 5 combinations (ILYQFELFGFTLIFFK)	CCL18, CCL19,; also recorded: CXL10, CXL14
CR5737 (FLVVVYSIVSFLGILG)	CCL17, CCL18,; also recorded: CCL19, CCL2,; also recorded: CCL20, CCL22,; also recorded: CCL25, CCL28,; also recorded: X3CL1, CXL10,; also recorded: CXL13, CXL14
CR7856 (GWVFIFSSIQLCTVVF)	CCL1, CCL19, and CCL20, CCL25, and CXL10, SDF1, and IL8
CR9141 (IIIWALAILASMPGLY)	CCL20, CCL28,; also recorded: CXL11, SDF1
EB2047 (KSDEYELFTVEYCGTN)	CXL10, CXL11,; also recorded: SDF1, CXL14

same assay, conditions: log2E greater than 5, chemokines named by first part of UniProt entry name, C5a (control) binders excluded

Substance	Chemokines Bound
CR2028 (ATSWVVIFWILAALMG)	CCL17, CCL18,; also recorded: CCL19, CCL20,; also recorded: CCL28, SDF1,; also recorded: CXL13, CXL14
CR20429 (SFYISLFAGVSFLINL)	CCL22, CCL25,; also recorded: CXL10, CXL11
CR22736 (TFGVVTSVITWLVAVF)	CCL1, CCL11, and CCL17, CCL18, and CCL2, CCL25, and CCL28, CCL8, and X3CL1, CXL10, and CXL11, SDF1, and CXL13, CXL14, and IL8
CR10175 (IVTIIITFFLSWSPYH)	CCL1, CCL17,; also recorded: CCL18, CCL20,; also recorded: CCL22, CCL25,; also recorded: CCL28, X3CL1,; also recorded: CXL10, CXL11,; also recorded: CXL14
CR19826 (RVTLTSLAVWGLSLLF)	CCL17, CCL2,; also recorded: X3CL1, CXL14
CR15801 (MSFFSGMLLLLCISID)	CCL18, CCL20, and SDF1
CR11604 (LALSISLLAEVLMFLF)	CCL17, CCL18,; also recorded: CCL20, CCL25,; also recorded: CXL10, CXL13,; also recorded: CXL14, IL8
CR1005 (ALAFIYVLMFLSNAIG)	CCL19, CCL2,; also recorded: CCL20, CCL28,; also recorded: CXL14
CK1445 (FVVDYYETSSLCSQPA)	CCL19, CCL2, and X3CL1, SDF1, and IL8
CR15917 (MVFSFFYVIFSKALHD)	CCL19, X3CL1,; also recorded: SDF1, CXL13
CR20557 (SGYDMWLMLVYSVMIP)	CCL1, CCL15,; also recorded: CCL25
CR22218 (SVSLVNLLTIIGCLWV)	CCL19, X3CL1,; also recorded: CXL13
CR22747 (TFKILICIVWGVMPVV)	CCL1, CCL17,; also recorded: CCL18, CCL20,; also recorded: CCL22, CCL28,; also recorded: X3CL1, CXL10,; also recorded: SDF1, CXL13,; also recorded: CXL14
CR22658 (TENFEYDDLAEACYIG)	CCL17, CCL18,; also recorded: X3CL1
CR14850 (LVLGLLLNSLALWVFS)	CCL22, CCL28,; also recorded: CXL10, CXL11,; also recorded: SDF1, CXL14
CR10681 (KIIFSYVVVFLVAWLP)	CCL25, CCL28, and SDF1
CR14974 (LVTLPFWGISVAWHWV)	CCL18, CCL25,; also recorded: CCL28
CK2307 (IVRNFHYLLIKDGSRV)	CCL19, CCL20,; also recorded: CCL22
CR14365 (LSLSISLLAEVLMFLF)	CCL11, CCL19,; also recorded: CCL28, SDF1,; also recorded: CXL13, IL8
CR14976 (LVTMAVWVASILSSIL)	CCL2, SDF1,; also recorded: CXL13
